Measured values reported in patent publication US8614201B2 (Janssen Pharmaceutica NV, priority 2009, dated 2013).

Target: Human TRPA1 (Homo sapiens, UniProt O75762)
Assay: Assay 1: In vitro cellular testing of TRPA1 modulation (CHO-TREx, Fluo-3 calcium fluorescence, AITC agonist)
Assay type: cell-based
Parameters: expressed in transfected cells; host or cells: CHO-TREx cells (Invitrogen), vector pcDNA4/TO
Conditions: CHO-TREx cells expressing human TRPA1; Fluo-3 fluorescence (FLIPR/Tetra); agonist 15 μM allyl isothiocyanate (AITC); 30 minute antagonist incubation
In short: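 Tetracycline-induced CHO-TREx cells stably expressing human TRPA1, loaded with 4 μM Fluo-3 AM, preincubated 30 min with compound (serial dilution typically from 10 μM, three-fold steps) in HEPES saline pH 7.4. Fluorescence change over 3 min after 15 μM AITC; IC50 from Hill fit versus no-antagonist and 10 μM ruthenium red controls.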

Sequence of Human TRPA1 (O75762 whole entry): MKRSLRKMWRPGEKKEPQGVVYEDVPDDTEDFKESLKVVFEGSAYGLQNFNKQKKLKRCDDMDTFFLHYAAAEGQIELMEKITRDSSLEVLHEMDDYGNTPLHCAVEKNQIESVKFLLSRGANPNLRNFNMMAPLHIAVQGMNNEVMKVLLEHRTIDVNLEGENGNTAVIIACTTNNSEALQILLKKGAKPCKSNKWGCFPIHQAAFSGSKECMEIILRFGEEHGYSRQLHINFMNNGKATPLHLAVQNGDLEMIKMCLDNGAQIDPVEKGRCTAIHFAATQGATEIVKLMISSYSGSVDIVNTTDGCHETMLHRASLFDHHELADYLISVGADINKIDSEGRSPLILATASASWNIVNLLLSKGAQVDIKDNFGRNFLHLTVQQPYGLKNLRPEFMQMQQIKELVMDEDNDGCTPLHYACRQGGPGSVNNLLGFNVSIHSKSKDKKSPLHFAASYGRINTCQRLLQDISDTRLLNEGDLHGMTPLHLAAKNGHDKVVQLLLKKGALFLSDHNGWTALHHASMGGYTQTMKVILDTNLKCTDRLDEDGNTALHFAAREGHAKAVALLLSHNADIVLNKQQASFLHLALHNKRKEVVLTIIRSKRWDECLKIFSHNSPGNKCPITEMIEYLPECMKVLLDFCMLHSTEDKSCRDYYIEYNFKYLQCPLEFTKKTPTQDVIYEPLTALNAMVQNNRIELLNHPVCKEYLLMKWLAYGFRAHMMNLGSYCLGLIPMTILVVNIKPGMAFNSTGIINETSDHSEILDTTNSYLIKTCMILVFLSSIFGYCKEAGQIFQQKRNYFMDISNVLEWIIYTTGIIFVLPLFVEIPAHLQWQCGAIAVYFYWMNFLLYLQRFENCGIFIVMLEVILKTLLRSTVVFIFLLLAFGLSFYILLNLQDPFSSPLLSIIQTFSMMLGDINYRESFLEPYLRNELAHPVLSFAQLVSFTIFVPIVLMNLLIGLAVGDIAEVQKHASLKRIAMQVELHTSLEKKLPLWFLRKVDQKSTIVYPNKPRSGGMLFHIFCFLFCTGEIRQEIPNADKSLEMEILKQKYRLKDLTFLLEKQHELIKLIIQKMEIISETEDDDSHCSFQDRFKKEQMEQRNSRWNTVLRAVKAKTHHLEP

SMILES | IC50 [nM]
O=C(NCc1cccc(-c2ccc3cc[nH]c3c2)c1)[C@@H]1CCCN1S(=O)(=O)c1ccc(F)cc1 [Example 101, 1-(4-Fluorobenzenesulfonyl)-pyrrolidine-2S-carboxylic acid 3-(1H-indol-6-yl)-benzylamide] | 4050
O=C(NCc1cc(NCc2ccccc2)nc(-c2ccc(C(F)(F)F)cc2)c1)[C@@H]1C=CCN1S(=O)(=O)c1ccc(F)cc1 [Example 321, (2S)—N-({2-(Benzylamino)-6-[4-(trifluoromethyl)phenyl]pyridin-4-yl}methyl)-1-[(4-fluorophenyl)sulfonyl]-2,5-dihydro-1H-pyrrole-2-carboxamide] | 1020
CC(Nc1cc(CNC(=O)[C@@H]2CC(F)(F)CN2S(=O)(=O)c2ccc(Cl)s2)cc(-c2ccc(C(F)(F)F)cc2)n1)c1cccnc1 (stereo partly drawn) [Example 399, 1-[(5-Chlorothiophen-2-yl)sulfonyl]-4,4-difluoro-N-({2-[(1-pyridin-3-ylethyl)amino]-6-[4-(trifluoromethyl)phenyl]pyridin-4-yl}methyl)-L-prolinamide] | 2610
O=C(NCc1cc(-c2ccc(C(F)(F)F)cc2)nc(N2CCN(Cc3cccnc3)CC2)c1)[C@@H]1C=CCN1S(=O)(=O)c1ccc(Cl)s1 [Example 355, (2S)-1-[(5-Chlorothiophen-2-yl)sulfonyl]-N-({2-[4-(pyridin-3-ylmethyl)piperazin-1-yl]-6-[4-(trifluoromethyl)phenyl]pyridin-4-yl}methyl)-2,5-dihydro-1H-pyrrole-2-carboxamide] | 891
CC(Nc1cc(CNC(=O)[C@@H]2CCCN2S(=O)(=O)c2ccc(Cl)s2)cc(-c2ccc(C(F)(F)F)cc2)n1)c1cccnc1 (stereo partly drawn) [Example 405, 1-[(5-Chlorothiophen-2-yl)sulfonyl]-N-({2-[(1-pyridin-3-ylethyl)amino]-6-[4-(trifluoromethyl)phenyl]pyridin-4-yl}methyl)-L-prolinamide] | 481
O=C(NCc1cccc(-c2ccc(CN3CCOCC3)cc2)c1)[C@@H]1CCCN1S(=O)(=O)c1ccc(F)cc1 [Example 102, 1-(4-Fluorobenzenesulfonyl)-pyrrolidine-2S-carboxylic acid (4′-morpholin-4-ylmethylbiphenyl-3-ylmethyl)-amide] | 1700
Cn1ccc2ccc(-c3cccc(CNC(=O)[C@@H]4CCCN4S(=O)(=O)c4ccc(F)cc4)c3)cc21 [Example 108, 1-(4-Fluorobenzenesulfonyl)-pyrrolidine-2S-carboxylic acid 3-(1-methyl-1H-indol-6-yl)-benzylamide] | 2530
CC(Nc1cc(CNC(=O)[C@@H]2C=CCN2S(=O)(=O)c2ccc(Cl)s2)cc(-c2ccc(C(F)(F)F)cc2)n1)c1cccnc1 (stereo partly drawn) [Example 351, (2S)-1-[(5-Chlorothiophen-2-yl)sulfonyl]-N-({2-[(1-pyridin-3-ylethyl)amino]-6-[4-(trifluoromethyl)phenyl]pyridin-4-yl}methyl)-2,5-dihydro-1H-pyrrole-2-carboxamide] | > 10000
Cc1ccccc1S(=O)(=O)N1CCC[C@H]1C(=O)NCc1cc(-c2ccc(C(F)(F)F)cc2)ncn1 [Example 155, 1-(Toluene-2-sulfonyl)-pyrrolidine-2S-carboxylic acid [6-(4-trifluoromethylphenyl)-pyrimidin-4-ylmethyl]-amide] | 1020
O=C(NCc1cc(NCc2ccccc2)nc(-c2ccc(C(F)(F)F)cc2)c1)[C@@H]1C=CCN1S(=O)(=O)c1ccc(Cl)s1 [Example 320, (2S)—N-({2-(Benzylamino)-6-[4-(trifluoromethyl)phenyl]pyridin-4-yl}methyl)-1-[(5-chlorothiophen-2-yl)sulfonyl]-2,5-dihydro-1H-pyrrole-2-carboxamide] | 745
CNc1cc(CNC(=O)[C@@H]2CC(F)(F)CN2S(=O)(=O)c2ccc(F)cc2)cc(-c2ccc(C(F)(F)F)cc2)n1 [Example 360, 4,4-Difluoro-1-[(4-fluorophenyl)sulfonyl]-N-({2-(methylamino)-6-[4-(trifluoromethyl)phenyl]pyridin-4-yl}methyl)-L-prolinamide] | 2280
O=C(NCc1cc(-c2ccc(C(F)(F)F)cc2)nc(N2CCN(Cc3ccncc3)CC2)c1)[C@@H]1C=CCN1S(=O)(=O)c1ccc(F)cc1 [Example 329, (2S)-1-[(4-Fluorophenyl)sulfonyl]-N-({2-[4-(pyridin-4-ylmethyl)piperazin-1-yl]-6-[4-(trifluoromethyl)phenyl]pyridin-4-yl}methyl)-2,5-dihydro-1H-pyrrole-2-carboxamide] | 1760
O=C(NCc1cc(-c2ccc(C(F)(F)F)cc2)nc(N2CCN(Cc3ccccc3)CC2)c1)[C@@H]1CC(F)(F)CN1S(=O)(=O)c1ccc(F)cc1 [Example 388, N-({2-(4-Benzylpiperazin-1-yl)-6-[4-(trifluoromethyl)phenyl]pyridin-4-yl}methyl)-4,4-difluoro-1-[(4-fluorophenyl)sulfonyl]-L-prolinamide] | 3520

Next, values leading:

IC50 [nM] | SMILES
36 | CC(C)CN1CCN(c2nc(CNC(=O)[C@@H]3CCCN3S(=O)(=O)c3ccc(F)cc3)cc(-c3ccc(C(F)(F)F)cc3)n2)CC1 [Example 1, 1-(4-Fluoro-benzenesulfonyl)-pyrrolidine-2S-carboxylic acid [2-(4-isobutyl-piperazin-1-yl)-6-(4-trifluoromethyl-phenyl)-pyrimidin-4-ylmethyl]-amide]
311 | CC(C)CN1CCN(c2cc(CNC(=O)[C@@H]3CC(F)(F)CN3S(=O)(=O)c3ccc(F)cc3)cc(-c3ccc(C(F)(F)F)cc3)n2)CC1 [Example 386, 4,4-Difluoro-1-[(4-fluorophenyl)sulfonyl]-N-({2-[4-(2-methylpropyl)piperazin-1-yl]-6-[4-(trifluoromethyl)phenyl]pyridin-4-yl}methyl)-L-prolinamide]
81 | CN(C)c1nc(CNC(=O)[C@@H]2CC(F)(F)CN2S(=O)(=O)c2ccc(Cl)s2)cc(-c2ccc(C(F)(F)F)cc2)n1 [Example 59]
17 | O=C(NCc1cccc(-c2ccc(C(F)(F)F)cn2)c1)[C@@H]1CCCN1S(=O)(=O)c1ccc(F)cc1 [Example 92, 1-(4-Fluorobenzenesulfonyl)-pyrrolidine-2S-carboxylic acid 3-(5-trifluoromethylpyridin-2-yl)-benzylamide]
51 | O=C(NCc1cc(-c2ccc(C(F)(F)F)cc2)ncn1)[C@@H]1CCCN1S(=O)(=O)c1cc(F)cc(F)c1 [Example 169, 1-(3,5-Difluorobenzenesulfonyl)-pyrrolidine-2S-carboxylic acid [6-(4-trifluoromethylphenyl)-pyrimidin-4-ylmethyl]-amide]
475 | Nc1nc(CNC(=O)[C@@H]2CCCN2S(=O)(=O)c2ccc(F)cc2)cc(-c2ccc(C(F)(F)F)cc2)n1 [Example 8, 1-(4-Fluoro-benzenesulfonyl)-pyrrolidine-2S-carboxylic acid [2-amino-6-(4-trifluoromethyl-phenyl)-pyrimidin-4-ylmethyl]-amide]
83 | CC(C)(C)OC(=O)N[C@@H]1CCN(c2nc(CNC(=O)[C@@H]3CCCN3S(=O)(=O)c3ccc(Cl)s3)cc(-c3ccc(C(F)(F)F)cc3)n2)C1 [Example 35, {1-[4-({[1-(5-Chloro-thiophene-2-sulfonyl)-pyrrolidine-2S-carbonyl]-amino}-methyl)-6-(4-trifluoromethyl-phenyl)-pyrimidin-2-yl]-pyrrolidin-3R-yl}-carbamic acid tert-butyl ester]
78 | O=C(NCc1cc(-c2ccc(C(F)(F)F)cc2)nc(OCCN2CCCCC2)n1)[C@@H]1CCCN1S(=O)(=O)c1ccc(Cl)s1 [Example 63, 1-(5-Chloro-thiophene-2-sulfonyl)-pyrrolidine-2S-carboxylic acid [2-(2-piperidin-1-yl-ethoxy)-6-(4-trifluoromethyl-phenyl)-pyrimidin-4-ylmethyl]-amide]
95 | O=C(NCc1cc(-c2ccc(C(F)(F)F)cc2)ncn1)[C@@H]1CCCN1S(=O)(=O)c1ccc(Cl)nc1 [Example 174, 1-(6-Chloropyridine-3-sulfonyl)-pyrrolidine-2S-carboxylic acid [6-(4-trifluoromethylphenyl)-pyrimidin-4-ylmethyl]-amide]
63 | CC1CCCN1c1nc(CNC(=O)[C@@H]2CCCN2S(=O)(=O)c2ccc(F)cc2)cc(-c2ccc(C(F)(F)F)cc2)n1 (stereo partly drawn) [Example 25, 1-(4-Fluoro-benzenesulfonyl)-pyrrolidine-2S-carboxylic acid [2-(2-methyl-pyrrolidin-1-yl)-6-(4-trifluoromethyl-phenyl)-pyrimidin-4-ylmethyl]-amide]
39 | C[C@H](Nc1nc(CNC(=O)[C@@H]2CCCN2S(=O)(=O)c2ccc(Cl)s2)cc(-c2ccc(C(F)(F)F)cc2)n1)c1ccccn1 [Example 36, 1-(5-Chloro-thiophene-2-sulfonyl)-pyrrolidine-2S-carboxylic acid [2-(1-pyridin-2-yl-ethylamino)-6-(4-trifluoromethyl-phenyl)-pyrimidin-4S-ylmethyl]-amide]
58 | CN(C)c1cc(CNC(=O)[C@@H]2CCCN2S(=O)(=O)c2ccc(Cl)s2)cc(-c2ccc(C(F)(F)F)cc2)n1 [Example 332, 1-[(5-Chlorothiophen-2-yl)sulfonyl]-N-({2-(dimethylamino)-6-[4-(trifluoromethyl)phenyl]pyridin-4-yl}methyl)-L-prolinamide]
79 | CC(C)CN1CCN(c2cc(CNC(=O)[C@@H]3CCCN3S(=O)(=O)c3ccc(Cl)s3)cc(-c3ccc(C(F)(F)F)cc3)n2)CC1 [Example 369, 1-[(5-Chlorothiophen-2-yl)sulfonyl]-N-({2-[4-(2-methylpropyl)piperazin-1-yl]-6-[4-(trifluoromethyl)phenyl]pyridin-4-yl}methyl)-L-prolinamide]
